Source: patent publication US11166924B2, “N-methyl-d-aspartate receptor allosteric modulators and methods for their use” (Qingdao Primedicine Pharmaceutical Company, Ltd., priority 2016, dated 2021)

Experiments:
GluN1/GluN2A^I176Y = biological target: T1, GluN1/GluN2A^I176Y (Rattus norvegicus, UniProt P35439+Q00959, I176Y); experiment: Patch clamp in HEK293 cells expressing mutant GluN1/GluN2A I176Y; type: cell-based
T1 construct: expressed in transfected cells; host or cells: HEK293
Description: Whole cell patch-clamp recordings were performed under voltage-clamp mode using an Axopatch 200B or 1D patch-clamp amplifier (Molecular Devices). Whole-cell currents were recorded at a holding potential of −60 mV unless indicated elsewhere, and signals were filtered at 2 kHz, digitized at 10 kHz (Digidata 1322A). Recording pipettes (3-5 MΩ) were filled with intracellular solution containing (mM): CsCl 140, HEPES 10, Mg-ATP 4, QX-314 5, pH 7.20; osmolarity, 290-295 mOsm. BAPTA (10 mM) was added in the intracellular solution (unless otherwise specified). The coverslips were continuously superfused with extracellular solution containing (mM): NaCl 140, KCl 5.4, HEPES 10, CaCl2 1.3, glucose 20, pH 7.4; osmolarity, 305-315 mOsm. NMDA-induced currents were applied by NMDA through perfusion fast-step (Warner Instruments). With perfusion fast-step system, NMDA application was achieved by using a two-square barrel glass tubing and depending on the age of the cultured neurons, CNQX (10 μM), TTX (0.5 μM) or BIC (10 μM) were added in the extracellular solution to minimize the activation of ionotropic glutamate receptors and voltage-gated sodium channels, respectively. All experiments were performed at room temperature. Recordings from at least six HEK293 cells/neurons were performed for all active compounds. […]

AMPAR = experiment: AMPA-induced currents in cultured hippocampal neurons; type: cell-based
Description: Whole cell patch-clamp recordings were performed under voltage-clamp mode using an Axopatch 200B or 1D patch-clamp amplifier (Molecular Devices). Whole-cell currents were recorded at a holding potential of −60 mV unless indicated elsewhere, and signals were filtered at 2 kHz, digitized at 10 kHz (Digidata 1322A). Recording pipettes (3-5 MΩ) were filled with the intracellular solution that contained (mM): CsCl 140, HEPES 10, Mg-ATP 4, QX-314 5, pH 7.20; osmolarity, 290-295 mOsm. BAPTA (10 mM) was added in the intracellular solution (otherwise specified). The coverslips were continuously superfused with the extracellular solution containing (mM): NaCl 140, KCl 5.4, HEPES 10, CaCl2 1.3, glucose 20, pH 7.4; osmolarity, 305-315 mOsm. NMDA, GABA or AMPA induced currents were either applied by NMDA, GABA, AMPA either through perfusion fast-step (Warner Instruments). […]
Next, the inventor evaluated the selectivity profile for Npam02 on two other key ionotropic receptors of the central nervous system (CNS): α-amino-3-hydroxy-5-methyl-4-isoxazolepropionic acid receptor AMPAR, which are known to be a non-NMDA type ionotropic transmembrane receptor for glutamate that mediates fast synaptic transmission in the central nervous system (CNS) and GABA receptors which are the principal inhibitory ligand-gated ion channel receptor. […]

T1 sequence (Q00959 23-1464 I176Y, other chains not shown): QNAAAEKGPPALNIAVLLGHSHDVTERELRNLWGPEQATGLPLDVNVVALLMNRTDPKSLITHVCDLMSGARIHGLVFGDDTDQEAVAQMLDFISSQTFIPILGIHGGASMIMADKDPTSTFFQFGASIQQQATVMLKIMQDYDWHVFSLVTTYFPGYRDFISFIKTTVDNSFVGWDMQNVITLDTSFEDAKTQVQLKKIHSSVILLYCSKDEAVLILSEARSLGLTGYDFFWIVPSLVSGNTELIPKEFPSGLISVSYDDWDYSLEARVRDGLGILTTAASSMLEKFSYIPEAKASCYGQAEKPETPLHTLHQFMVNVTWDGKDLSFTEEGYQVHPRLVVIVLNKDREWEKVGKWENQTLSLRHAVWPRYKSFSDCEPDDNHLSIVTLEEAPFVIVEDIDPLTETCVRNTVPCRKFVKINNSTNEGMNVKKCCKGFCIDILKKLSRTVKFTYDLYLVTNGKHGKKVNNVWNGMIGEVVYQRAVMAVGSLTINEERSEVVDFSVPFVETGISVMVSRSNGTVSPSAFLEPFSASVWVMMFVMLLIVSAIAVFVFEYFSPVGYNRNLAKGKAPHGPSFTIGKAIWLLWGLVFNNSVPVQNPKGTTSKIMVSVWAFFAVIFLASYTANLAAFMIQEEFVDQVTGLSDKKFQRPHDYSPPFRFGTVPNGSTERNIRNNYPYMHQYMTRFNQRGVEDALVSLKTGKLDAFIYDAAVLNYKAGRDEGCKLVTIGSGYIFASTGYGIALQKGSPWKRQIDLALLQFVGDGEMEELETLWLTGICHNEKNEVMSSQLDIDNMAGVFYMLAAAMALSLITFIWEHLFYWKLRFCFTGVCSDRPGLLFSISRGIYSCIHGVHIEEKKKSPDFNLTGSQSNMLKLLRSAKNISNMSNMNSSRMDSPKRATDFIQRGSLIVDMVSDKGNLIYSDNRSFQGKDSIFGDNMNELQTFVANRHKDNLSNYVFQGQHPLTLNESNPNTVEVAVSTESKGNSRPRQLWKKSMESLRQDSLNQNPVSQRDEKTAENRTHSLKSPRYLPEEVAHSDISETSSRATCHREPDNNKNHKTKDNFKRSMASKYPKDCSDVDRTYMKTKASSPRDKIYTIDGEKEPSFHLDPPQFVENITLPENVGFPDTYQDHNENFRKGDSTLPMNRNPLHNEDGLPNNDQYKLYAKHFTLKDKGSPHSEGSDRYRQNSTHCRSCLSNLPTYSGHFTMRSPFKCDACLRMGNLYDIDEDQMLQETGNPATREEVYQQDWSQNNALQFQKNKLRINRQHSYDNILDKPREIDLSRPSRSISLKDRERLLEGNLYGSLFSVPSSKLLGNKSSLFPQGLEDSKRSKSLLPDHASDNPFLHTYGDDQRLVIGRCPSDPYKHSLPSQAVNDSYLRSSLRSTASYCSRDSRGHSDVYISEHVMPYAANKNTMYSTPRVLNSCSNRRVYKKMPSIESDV

Row | Compound | Relative potentiation (GluN1/GluN2A^I176Y; Table 3) [%] | Net Difference potentiation (GluN1/GluN2A^I176Y; normalized to wild-type) [%] | Effect on AMPAR mediated currents (AMPAR)
1 | CCOc1cc(Cl)c(Cl)c(/C=N/NC(=O)c2ccccc2Br)c1O [Npam43, (E)-2-bromo-N′-(2,3-dichloro-5-ethoxy-6-hydroxybenzylidene)benzohydrazide] | 189 ± 3.8 | −10.1 ± 0.12 | 
2 | COc1cccc(/C=N/NC(=O)c2ccccc2C)c1O [Npam02, (E)-N′-(2-hydroxy-3-methoxybenzylidene)-2-methylbenzohydrazide] |  |  | no observable effects
